Counter-ions that a name gives are not always drawn.

This test deals with person with erectile dysfunction. As to the kind of experiment: Erectile strength rated on a unilinear scale of 1 to 10 in treated patients. The test is classed as in vivo, human. An excerpt:
Subsequent discontinuation of Pavabid and Trental and placed on Viagra alone.

With `CCCc1nn(C)c2c(=O)[nH]c(-c3cc(S(=O)(=O)N4CCN(C)CC4)ccc3OCC)nc12` [Viagra, sildenafil citrate], the erectile strength is, setting by setting: (Example 1: person, rated 3 before treatment) 7; (Example 2: person, rated 2 prior to treatment) 6.

Values taken from US20020094988A1, “Method of treating erectile dysfunction” (priority 1999, published 2002).
